Test results published in PubChem BioAssay (NCI).
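Exposure lasted 48 hours, with cells grown in 96-well plates and compounds tested at five concentrations. GI50 = concentration required for 50% inhibition of growth. TGI: concentration producing complete growth inhibition.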

Legend:
Experiment in all cases: NCI-60 cell line screen, 48 h
[1] = system: COLO 205 colon
[2] = system: SK-MEL-5 melanoma
[3] = system: SK-MEL-28 melanoma
[4] = system: OVCAR-4 ovarian
[5] = system: HOP-92 NSCLC
[6] = system: SK-MEL-2 melanoma
[7] = system: UACC-257 melanoma
[8] = system: RXF 393 renal

Compound | TGI [1] [µM] | TGI [2] [µM] | TGI [3] [µM] | TGI [4] [µM] | TGI [5] [µM] | TGI [6] [µM] | TGI [7] [µM] | TGI [8] [µM] | GI50 [1] [µM] | GI50 [2] [µM] | GI50 [3] [µM] | GI50 [4] [µM] | GI50 [5] [µM] | GI50 [6] [µM] | GI50 [7] [µM] | GI50 [8] [µM]
Cc1cc(NS(=O)(=O)c2ccc(Nc3c4ccccc4nc4c(C(=O)Nc5ccc(S(=O)(=O)N=C(N)N)cc5)cccc34)cc2)no1 | > 100 | > 100 | > 100 | > 100 | > 100 | > 100 | > 100 | > 100 | – | – | – | – | – | – | – | –
Cn1cnc([N+](=O)[O-])c1Sc1ccccn1 | > 100 | > 100 | > 100 | > 100 | > 100 | > 100 | > 100 | – | – | – | – | – | – | – | – | –
C[Si](C)(C)/C=C/CCC(C=O)(CCCl)c1ccccc1 (centres undefined) | 85.4 | 33.9 | > 100 | – | 89.1 | 29.7 | 75.8 | 54.6 | – | – | – | – | – | – | – | –
O=C1C2c3[nH]c4ccccc4c3[C@@H]3CCCCCCCCCCC3C2C(=O)N1c1ccccc1 (some centres undefined) | 58.5 | > 100 | 58.8 | 57.5 | – | – | – | 32.7 | – | – | – | – | – | – | – | –
COC(=O)C[CH](C(=O)OC)[Ge]([CH3])([CH3])[S]c1ccccc1 (centres undefined) | 27.1 | > 100 | 65.7 | 72.4 | 95.8 | > 100 | > 100 | 55.9 | 13.9 | 33.1 | 23.3 | 18.1 | 48.6 | 16.2 | 33 | 37.9
CC1=NNC(=NCCN(C)C)C/C1=C/c1ccccc1Cl | > 100 | > 100 | > 100 | > 100 | – | > 100 | 98 | > 100 | – | – | – | – | – | – | – | –
N/C(=N\NS(=O)(=O)c1ccccc1)Oc1ccc(Cl)cc1 | > 100 | > 100 | > 100 | > 100 | > 100 | > 100 | > 100 | 58.1 | – | – | – | – | – | – | – | –
COc1cc([C@@H]2c3cc4c(cc3[C@@H](NC(=O)c3ccc(N)cc3)C3COC(=O)[C@@H]32)OCO4)cc(OC)c1O (some centres undefined) | 28.4 | 21.6 | 50.8 | > 100 | > 100 | 28.3 | > 100 | 67.6 | – | – | – | – | – | – | – | –
Cc1nc(C)c(C(=O)Nc2cccc3c2C(=O)NC3=O)cc1C(=O)Nc1cccc2c1C(=O)NC2=O | > 100 | > 100 | > 100 | > 100 | > 100 | > 100 | > 100 | > 100 | – | – | – | – | – | – | – | –
c1ccc2c(CNCCCCCCNCc3cccc4ccccc34)cccc2c1 | 3.12 | 19.9 | 3.29 | 28.9 | 20.5 | 3.02 | 3.17 | 6.9 | – | – | – | – | – | – | – | –
CC#C[C@@]1(O)CCCC[C@@H]1O | > 100 | > 100 | > 100 | > 100 | > 100 | > 100 | > 100 | > 100 | – | – | – | – | – | – | – | –
N#Cc1cccc(NC(=O)c2ccc(C(=O)O)c(C(=O)c3ccc(C(=O)O)c(C(=O)Nc4cccc(C#N)c4)c3)c2)c1 | > 100 | > 100 | – | > 100 | > 100 | > 100 | > 100 | > 100 | – | – | – | – | – | – | – | –
Nc1nc2c(ncn2C2OC(CO)C(O)C2N)c(=O)[nH]1 (centres undefined) | > 100 | – | > 100 | – | > 100 | > 100 | > 100 | – | – | – | – | – | – | – | – | –
COc1ccc2cccc(C(=O)c3ccc(C)c4c3CCC4)c2c1 | 68.3 | 36.8 | > 100 | > 100 | – | 98.2 | > 100 | 73.5 | – | – | – | – | – | – | – | –
CCOC(=O)C1N(S(=O)(=O)c2ccc(C)cc2)CCC12c1ccccc1N(C(C)=O)C2C(/C=C/C(=O)OC)=C/C(=O)OC (centres undefined) | > 100 | > 100 | > 100 | > 100 | > 100 | – | > 100 | > 100 | – | – | – | – | – | – | – | –
OCC(O)C(O)c1nn(-c2ccccc2)c2nc3cc(Cl)c(Cl)cc3nc12 (centres undefined) | 86.4 | > 100 | > 100 | 93.5 | 82.1 | 74.1 | > 100 | 47.4 | – | – | – | – | – | – | – | –
CCC1C(C)c2c([nH]c3ccccc23)C2C(=O)N(c3ccccc3)C(=O)C21 (centres undefined) | 30.7 | 28.8 | 33.4 | 38 | – | – | – | 26 | – | – | – | – | – | – | – | –
Cc1cc(C)cc(-n2c3nc(=O)n(C)c(=O)c-3nc3ccccc32)c1 | 24.8 | 30.8 | – | 41.5 | – | 63.5 | 31.2 | > 100 | – | – | – | – | – | – | – | –
COC(=O)/C=C/C(=O)C1C(C(=O)OC)C2(C(=O)OC)CCC1(C(=O)OC)N2 (centres undefined) | > 100 | > 100 | > 100 | > 100 | – | > 100 | – | > 100 | – | – | – | – | – | – | – | –
CC(=O)NS(=O)(=O)c1ccc(NC(=O)COC(=O)c2cccc3c(=O)c4ccccc4[nH]c23)cc1 | > 100 | > 100 | > 100 | – | – | > 100 | > 100 | > 100 | – | – | – | – | – | – | – | –
O=C(c1cc(O)ccc1O)c1ccccc1C(Cl)(Cl)Cl | > 100 | > 100 | – | > 100 | > 100 | > 100 | > 100 | > 100 | – | – | – | – | – | – | – | –
